Here are results for 4 compounds from US20240216354A1, “IMMUNOMODULATORY IMIDE DRUGS AS ZETA-CHAIN-ASSOCIATED PROTEIN KINASE 70 (ZAP70) AGONISTS AND USES THEREOF” (Dana-Farber Cancer Institute, Inc., priority 2019, published 2024).

For test [1], the target named is T1, Zap-70 (Homo sapiens, UniProt P43403).
T1 sequence (P43403 1-619): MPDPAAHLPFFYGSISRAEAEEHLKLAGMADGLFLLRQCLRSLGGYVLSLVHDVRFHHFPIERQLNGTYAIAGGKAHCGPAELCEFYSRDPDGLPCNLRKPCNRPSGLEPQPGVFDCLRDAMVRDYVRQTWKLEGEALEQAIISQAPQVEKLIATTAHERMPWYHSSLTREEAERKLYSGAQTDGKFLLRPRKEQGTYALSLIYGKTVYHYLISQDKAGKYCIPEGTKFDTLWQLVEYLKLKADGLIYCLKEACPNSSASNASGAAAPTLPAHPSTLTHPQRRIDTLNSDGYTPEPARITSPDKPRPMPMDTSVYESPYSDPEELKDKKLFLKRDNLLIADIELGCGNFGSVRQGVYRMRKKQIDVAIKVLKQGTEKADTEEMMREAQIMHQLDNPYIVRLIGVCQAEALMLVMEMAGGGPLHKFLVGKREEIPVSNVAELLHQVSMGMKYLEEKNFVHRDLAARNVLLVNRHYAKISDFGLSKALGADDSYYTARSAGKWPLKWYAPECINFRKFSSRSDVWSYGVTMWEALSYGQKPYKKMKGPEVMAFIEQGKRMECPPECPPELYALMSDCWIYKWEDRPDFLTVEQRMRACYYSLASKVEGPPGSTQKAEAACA
Kind of test: PathScan Phospho-Zap-70 (Tyr319) Sandwich ELISA in Jurkat cells. Format: cell-based. The note with it: lenalidomide (1 and 3 μM) or pomalidomide (1 and 3 μM), 4 h and 8 h, Len<Pom. As to the method:
(§1) (A) Jurkat cells were transfected with scrambled (Sc) siRNA or Zap-70 siRNA. Whole cell lysates were subjected to immunoblotting using indicated Abs. (B) Jurkat cells were treated with lenalidomide ([…]) or pomalidomide (1 and 3 μM) for 4 h and 8 h. Whole cell lysates were subjected to p-Zap ELISA assay. (C) Jurkat whole cell lysates were incubated with pomalidomide-beads in the presence or absence of competitor (1 mM free pomalidomide) for 1 h. After elution, samples were subjected to immunoblotting using anti-Zap-70 Ab. (D) Saturation-transfer difference resulting from the binding of pomalidomide to Zap-70. Pomalidomide is at 320 μM and Zap-70 is approximately 2 μM in deuterated PBS solution. […] (E) Saturation-transfer difference resulting from the binding of pomalidomide to Zap-70 in the presence of 2.56 mMATP. Pomalidomide is at 320 μM and Zap-70 is approximately 2 μM in deuterated PBS solution. […] Note that both ATP and pomalidomide show binding the Zap-70. (F) Non-cell based Zap-70 kinase assay was carried out, according to manufacturer's protocol.
Phosphorylation of Zap-70 was evaluated using PathScan Phospho-Zap-70 (Tyr319) Sandwich ELISA Kit (Cell Signaling Technology), according to manufacturer's protocol.

Test [2] concerns the target T1, Zap-70. Put plainly: Saturation-transfer difference (STD) NMR binding to recombinant Zap-70. More on the design: purchased Origene, Rockville, MD. To be noted: Pom 320 μM, Len 2.56 mM, ATP 2.56 mM, Zap-70 approximately 2 μM, deuterated PBS. The method, then: as §1
(A) Saturation-transfer difference resulting from the binding of lenalidomide to Zap-70, with lenalidomide (2.56 mM) and Zap-70 (2 μM) in deuterated PBS solution. […] (B) Saturation-transfer difference resulting from the binding of lenalidomide to Zap70 in the presence of 2.56 mM ATP, with lenalidomide (2.56 mM) and Zap-70 (2 μM) in deuterated PBS solution.
Commercial recombinant Zap-70 (Origene, Rockville, MD) was prepared by gel filtration buffer exchange into deuterated phosphate-buffered saline (PBS), which removed any components of the protein storage buffer, including glycerol. Len and Pom were made as d6-DMSO stock solutions and frozen in aliquots prior to use. ATP was stored frozen in aliquots at −20° C. in deuterated PBS. NMR samples were prepared in 5 mm SampleJet tubes to a final volume of 500 μl by adding 5-20 μl of the appropriate IMiD stock solution to the buffer-exchanged protein. The final concentration of protein in the NMR samples was approximately 2 μM. […]

Test [3] concerns the target T1, Zap-70. Kind of test: Immunoblotting of p-Zap-70, p-LAT and p-ERK in PBMCs. The note with it: 16 h, Pom 0.01-1 μM, Len 1 μM. It is filed as cell-based. More on the design: endogenous in cells; host or cells: primary PBMCs, primary T cells and primary NK cells from healthy volunteers. As to the method:
(A) PBMCs were cultured with pomalidomide (“Pom”) (0.01-1 μM) for 16 h. […] (B) PBMCs were cultured with pomalidomide (0.1 and 1 μM) for the indicated time periods. (C) PBMCs were cultured with lenalidomide (“Len”) (1 μM) for 16 h. (D) Primary T-cells from healthy volunteer were cultured with pomalidomide (0.25-1 μM) for 16 h. (E) Jurkat cells were cultured with pomalidomide (0.5 and 1 μM) for 16 h. Whole cell lysates were subjected to immunoblotting (A-E) using indicated Abs. (F) Jurkat cells were cultured with pomalidomide (0.01-1 μM) or lenalidomide (0.01-1 μM) for 72 h. Cell growth was assessed by MTT assay.
To characterize the effect of IMiDs on Zap-70 function in immune effector cells, pomalidomide triggered phosphorylation of Zap-70 was evaluated along with its known downstream target linker of activated T-cells (LAT) in PBMCs from healthy volunteers. […] Image J densitometric analysis confirmed 42% increased p-Zap-70 after pomalidomide (1 μM) treatment (FIG. 1A, lower panel). The increased p-Zap-70, p-LAT, as well as downstream p-ERK in PBMCs triggered by pomalidomide is also time-dependent (FIG. 1B). […] Since Zap-70 is a mediator of T-cell receptor signaling, whether IMiDs triggered p-Zap-70 in T cells from healthy volunteers was studied.
A general note: A western blot detects proteins with antibodies after separation by electrophoresis.

The test system of another test is granzyme-B (GZM-B). Kind of test: GZM-B expression in KHYG-1 cells (immunoblotting, real-time qPCR). Format: cell-based. The method, then: (A) KHYG1 cells were cultured with pomalidomide (0.25-1 μM) for 24 h. (B) Isolated primary NK cells from healthy volunteers (#1, #2) were cultured with pomalidomide (0.3-1 μM) for 24 h. (C) KHYG-1 cells were transfected with Scsi or Zap-70si. After 48 h, cells were cultured for 24 h in the absence or presence (0.5 μM) of pomalidomide. Whole cell lysates and RNAs were subjected to immunoblotting using indicated Abs.
(A) KHYG-1 cells were transfected with Scsi or CRBNsi. After 48 h, cells were cultured in the absence or presence of pomalidomide (0.5 μM) for 24 h, and cell lysates immunoblotted with indicated Abs. (B) KHYG-1 cells were transfected with Scsi or Zap-70si, and then cultured for 72 h with pomalidomide (0.25 μM), in the absence of IL-2. Cells were counted and incubated with calcein AM-labeled U266 for 4 h at indicated effector/target (E/T) ratios.
(§2) (A) KHYG-1 cells were transfected with CRBN, IKZF1, or IKZF3 siRNA. The transfectants were then cultured for 24 h with pomalidomide (0.5 μM). The arrow indicates CRBN. (B) KHYG-1 cells were cultured with pomalidomide for 24 h (0.5 μM), in the presence or absence of bortezomib (BTZ; 2.5 and 5 nM). (C, D) KHYG-1 cells were cultured for 24 h with lenalidomide, pomalidomide, or CC-220 (i.e., iberdomide) (0.01-1 μM). Whole cell lysates and RNAs were subjected to immunoblotting using indicated Abs (C) and real-time q-PCR (D), respectively.

Another test has as its system IKZF3. Kind of test: IKZF3 expression in KHYG-1 cells (immunoblotting). It is filed as cell-based. The method, then:
as §2

Test [4] deals with T1, Zap-70. Put plainly: Immunoblotting of p-Zap-70 in NK-92 cells. To be noted: 24 h, Pom 0.5 and 1 μM, CC-220 0.01, 0.1, 1 μM. It is filed as cell-based. The method, then: (§3) (A) NK-92 cells were cultured with Pom (0.5 and 1 μM) for 24 h. Whole cell lysates were subjected to immunoblotting using indicated Abs. (B) NK-92 cells were cultured with Pom (0.5 and 1 μM) for 48 h. The cells were subsequently incubated with calcein-AM-stained U266 cells for 4 h at the indicated effector/target (E/T) ratios. Percent specific lysis was calculated as described previously. (C) NK-92 cells were cultured with Pom (0.03-3 μM) for 72 h. Cell growth was assessed by MTT assay. (D) NK-92 cells were transfected with scrambled (Sc) or Zap-70 siRNA (Zap70si). After 72 h incubation, cell viability was measured by trypan-blue dye exclusion. For B, C, and D, data are representative of at least two independent experiments, and values are expressed in mean±SD.
(§4) (A) NK-92 cells were cultured with Len (1 μM), Pom (0.01, 0.1, 1 μM) or CC-220 (0.01, 0.1, 1 μM) for 24 h. Whole cell lysates were subjected to immunoblotting using indicated Abs. (B) NK-92 cells were cultured with Pom (0.1 and 1 μM) or CC-220 ([…]) for 48 h. NK cell activity was measured by incubation with calcein AM-labeled U266 cells for 4 h at E/T ratio of 2.5/1. Percent specific lysis was calculated as previously described. Data are representative of three independent experiments, and values are expressed in mean±SD. *: p<0.01.

The subject of a further test is U266 cells. Kind of test: NK-92 NK cell activity against calcein-AM-stained U266 cells. Format: cell-based. The note with it: NK-92 cells, 48 h; Pom 0.5 and 1 μM; CC-220 0.1 and 1 μM, E/T 2.5/1. As to the method:
as §3, §4

For another test, the target named is CRBN (Homo sapiens, UniProt Q96SW2). The note with it: cited from earlier work.
CRBN, sequence (Q96SW2 whole entry, species assumed): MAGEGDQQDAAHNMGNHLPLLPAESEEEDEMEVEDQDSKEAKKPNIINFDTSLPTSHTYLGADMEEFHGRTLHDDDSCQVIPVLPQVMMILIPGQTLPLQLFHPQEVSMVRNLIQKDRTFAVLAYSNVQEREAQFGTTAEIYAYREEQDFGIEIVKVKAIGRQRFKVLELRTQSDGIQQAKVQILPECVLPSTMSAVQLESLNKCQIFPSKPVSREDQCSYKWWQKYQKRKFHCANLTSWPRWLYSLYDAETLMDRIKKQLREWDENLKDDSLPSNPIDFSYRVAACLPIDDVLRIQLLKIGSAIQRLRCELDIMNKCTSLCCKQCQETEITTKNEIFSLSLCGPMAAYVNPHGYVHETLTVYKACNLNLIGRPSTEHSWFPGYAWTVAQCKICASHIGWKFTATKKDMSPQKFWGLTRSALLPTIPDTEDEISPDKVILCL
Where [5] appears, read: pomalidomide 0.5 μM 24 h, BTZ 2.5 and 5 nM.

Take `Nc1cccc2c1CN(C1CCC(=O)NC1=O)C2=O` (stereo not drawn) [lenalidomide]: at Zap-70 [1], the “p-Zap-70 (Tyr319) by ELISA” value is listed as “increased p-Zap-70 (Tyr319) in a dose-dependent fashion”. Moreover, on Zap-70 [2], the “direct binding to Zap-70 (STD NMR)” value was “similarly binds to Zap-70”. In addition, at Zap-70 [3], the “phosphorylation of LAT (immunoblotting)” value was “similarly triggered p-Zap-70 and p-LAT in PBMCs”; the “phosphorylation of Zap-70 (immunoblotting)” value was “similarly triggered p-Zap-70 and p-LAT in PBMCs”.
Regarding `CC(C)C[C@H](NC(=O)[C@H](Cc1ccccc1)NC(=O)c1cnccn1)B(O)O` [bortezomib], the “Pom-induced GZM-B expression in presence of bortezomib” value in the test with granzyme-B (GZM-B) (setting [5]) was “downregulated Pom-induced GZM-B expression in a dose-dependent fashion”. The “IKZF3 expression in presence of bortezomib” value in the test on IKZF3 (setting [5]) is reported as “upregulation of IKZF3”.
For `O=C1CC[C@H](N2Cc3c(OCc4ccc(CN5CCOCC5)cc4)cccc3C2=O)C(=O)N1` [CC-220, iberdomide], on Zap-70 [4], the “p-Zap-70 (immunoblotting)” value was “induced p-Zap-70 in a dose-dependent fashion”. The “NK cell activity against U266 cells (percent specific lysis)” value with U266 cells is “enhanced NK cell activity”. Moreover, the “potency in triggering GZM-B, compared among lenalidomide, pomalidomide and CC-220” value in the test with granzyme-B (GZM-B) (0.01-1 μM, 24 h, immunoblotting and real-time qPCR) is reported as “more potently upregulated GZM-B than lenalidomide or pomalidomide”. For the same compound, the IKZF3 expression entry with IKZF3 (0.01-1 μM, 24 h) was “downregulation of IKZF3”. The “binding affinity to CRBN relative to lenalidomide or pomalidomide” value at CRBN is on record as “enhanced binding affinity to CRBN relative to lenalidomide or pomalidomide”.
`Nc1ncnc2c1ncn2[C@@H]1O[C@H](COP(=O)(O)OP(=O)(O)OP(=O)(O)O)[C@@H](O)[C@H]1O` [ATP]: the “direct binding to Zap-70 (STD NMR)” value at Zap-70 [2] was “both ATP and lenalidomide bind to Zap-70”.
